Assay results: patent US6787567B2, “Fungicidal active ingredients combinations” (Bayer Aktiengesellschaft, priority 2000, dated 2004)

Test system: Plasmopara viticola
Assay: Plasmopara test (grapevine)/protective
Format: in vivo, Plasmopara viticola on grapevine
Conditions: protective, evaluation 6 days after inoculation
Method: Plasmopara Test (Grapevine)/Protective
Solvent: 49 parts by weight of acetone
Emulsifier: 1 part by weight of alkyl-aryl polyglycol ether
To produce a suitable preparation of active compound, 1 part by weight of active compound or active compound combination is mixed with the stated amounts of solvent and emulsifier, and the concentrate is diluted with water to the desired concentration, or a commercially available formulation of active compound or active compound combination is diluted with water to the desired concentration.
To test for protective activity, young plants are sprayed with the preparation of active compound at the stated application rate. After the spray coating has dried on, the plants are inoculated with an aqueous spore suspension of Plasmopara viticola and then remain in an incubation cabin at approximately 20° C. and 100% relative atmospheric humidity for 1 day. The plants are then placed in a greenhouse at approximately 21° C. and approximately 90% atmospheric humidity for 4 days. The plants are then moistened and then placed in an incubation cabin for 1 day.
Evaluation is carried out 6 days after the inoculation. 0% means an efficacy which corresponds to that of the control, whereas an efficacy of 100% means that no infection is observed.

SMILES	% efficacy (application rate 100 g/ha) [%]	% efficacy (application rate 10 g/ha) [%]
[Cl-].[Cu+2].[Cu+2].[OH-].[OH-].[OH-] [Copper oxychloride (XXXXVIa), copper oxychloride]	26	–
CON=C(C(=O)NCCc1ccc(OC)c(OC)c1)c1ccc2c(c1)CCCC2 [Ib]	–	66
